Read-outs that look alike come from different tables or passages of the source.
Target: T1, MST1 (Homo sapiens, UniProt Q13043)
T1 sequence (Q13043 1-487): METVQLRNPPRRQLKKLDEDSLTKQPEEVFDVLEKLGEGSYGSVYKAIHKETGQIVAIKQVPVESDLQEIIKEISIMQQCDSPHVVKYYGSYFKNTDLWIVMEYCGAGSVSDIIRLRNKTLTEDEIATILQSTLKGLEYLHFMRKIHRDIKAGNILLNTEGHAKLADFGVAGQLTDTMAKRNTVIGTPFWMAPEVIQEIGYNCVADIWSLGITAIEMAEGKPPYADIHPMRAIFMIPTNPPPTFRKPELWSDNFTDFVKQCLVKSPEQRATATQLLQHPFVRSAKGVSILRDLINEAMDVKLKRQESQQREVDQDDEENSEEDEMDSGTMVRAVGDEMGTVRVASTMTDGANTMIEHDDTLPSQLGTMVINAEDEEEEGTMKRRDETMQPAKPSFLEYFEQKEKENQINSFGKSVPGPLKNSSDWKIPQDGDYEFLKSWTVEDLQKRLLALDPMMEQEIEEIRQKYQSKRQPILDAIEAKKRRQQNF
Experiment: In vitro measurement of MST1 inhibition (Z′-Lyte kinase assay)
Format: biochemical

[1] = 1 μM ATP, read-out: IC50 (μM) 1 μM ATP
[2] = 50 μM ATP, read-out: IC50 (μM) 50 μM ATP

IC50 [1] | IC50 [2] | Structure (SMILES)
< 0.01 µM | < 0.01 µM | Nc1ncc(-c2ccc(S(=O)(=O)NC3CC3)cc2)cc1-c1ccc2c(c1)OCCNC2=O [4-(6-amino-5-(5-oxo-2,3,4,5-tetrahydrobenzo[f][1,4]oxazepin-8-yl)pyridin-3-yl)-N-cyclopropylbenzenesulfonamide]
< 0.05 µM | < 0.01 µM | CCN(C)S(=O)(=O)c1ccc(-c2cnc(N)c(-c3cc4c(s3)C(=O)NCC4)c2)cc1 [4-(6-amino-5-(7-oxo-4,5,6,7-tetrahydrothieno[2,3-c]pyridin-2-yl)pyridin-3-yl)-N-ethyl-N-methylbenzenesulfonamide]
< 0.01 µM | < 0.01 µM | CN(C1CC1)S(=O)(=O)c1ccc(-c2cnc(N)c(-c3cc4c(cn3)C(=O)NCC4)c2)cc1 [4-(6-amino-5-(8-oxo-5,6,7,8-tetrahydro-2,7-naphthyridin-3-yl)pyridin-3-yl)-N-cyclopropyl-N-methylbenzenesulfonamide]
< 0.05 µM | < 0.01 µM | N#Cc1ccc(-c2cnc(N)c(-c3cc4c(cn3)C(=O)NCC4)c2)cc1 [4-(6-amino-5-(8-oxo-5,6,7,8-tetrahydro-2,7-naphthyridin-3-yl)pyridin-3-yl)benzonitrile]
< 0.05 µM | < 0.01 µM | CNC(=O)N1CCc2cc(-c3nc(-c4ccc(S(=O)(=O)N(C)C5CC5)cc4)cnc3N)ccc21 [5-(3-amino-6-(4-(N-cyclopropyl-N-methylsulfamoyl)phenyl)pyrazin-2-yl)-N-methylindoline-1-carboxamide]
< 0.05 µM | < 0.01 µM | CC1(C#N)CCc2cc(-c3cnc(N)c(-c4ccc5c(c4)CCNC5=O)n3)ccc21 (stereo not shown) [5-(5-amino-6-(1-oxo-1,2,3,4-tetrahydroisoquinolin-6-yl)pyrazin-2-yl)-1-methyl-2,3-dihydro-1H-indene-1-carbonitrile]
< 0.05 µM | < 0.01 µM | CN(C1CC1)S(=O)(=O)c1ccc(-c2cnc(N)c(-c3ccc4c(c3)CCNC4=O)n2)cn1 [5-(5-amino-6-(1-oxo-1,2,3,4-tetrahydroisoquinolin-6-yl)pyrazin-2-yl)-N-cyclopropyl-N-methylpyridine-2-sulfonamide]
< 0.15 µM | < 0.01 µM | CC1(C#N)CCc2cc(-c3cnc(N)c(-c4ccc5c(c4)CCNC5=O)c3)ccc21 (stereo not shown) [5-(6-amino-5-(1-oxo-1,2,3,4-tetrahydroisoquinolin-6-yl)pyridin-3-yl)-1-methyl-2,3-dihydro-1H-indene-1-carbonitrile]
< 0.15 µM | < 0.05 µM | Nc1ncc(-c2ccc(C(=O)NCC(F)(F)F)s2)cc1-c1ccc2c(c1)CCNC2=O [5-(6-amino-5-(1-oxo-1,2,3,4-tetrahydroisoquinolin-6-yl)pyridin-3-yl)-N-(2,2,2-trifluoroethyl)thiophene-2-carboxamide]
< 0.05 µM | < 0.01 µM | CCN(C)S(=O)(=O)c1ccc(-c2cnc(N)c(-c3ccc4c(c3)CCNC4=O)c2)s1 [5-(6-amino-5-(1-oxo-1,2,3,4-tetrahydroisoquinolin-6-yl)pyridin-3-yl)-N-ethyl-N-methylthiophene-2-sulfonamide]
< 0.05 µM | < 0.01 µM | Nc1ncc(-c2ccc3c(c2)CNS3(=O)=O)cc1-c1ccc2c(c1)CCNC2=O [6-(2-amino-5-(1,1-dioxido-2,3-dihydrobenzo[d]isothiazol-5-yl)pyridin-3-yl)-3,4-dihydroisoquinolin-1(2H)-one]
– | < 0.05 µM | CN(C)c1nc(-c2cnc(N)c(-c3ccc4c(c3)CCNC4=O)c2)cs1 [6-(2-amino-5-(2-(dimethylamino)thiazol-4-yl)pyridin-3-yl)-3,4-dihydroisoquinolin-1(2H)-one]
< 0.05 µM | < 0.05 µM | Nc1ncc(-c2ccc3c(c2)CC(=O)N3)cc1-c1ccc2c(c1)CCNC2=O [6-(2-amino-5-(2-oxoindolin-5-yl)pyridin-3-yl)-3,4-dihydroisoquinolin-1(2H)-one]
< 0.05 µM | < 0.01 µM | CN(C)C(C)(C)c1ccc(-c2cnc(N)c(-c3ccc4c(c3)CCNC4=O)c2)cc1 [6-(2-amino-5-(4-(2-(dimethylamino)propan-2-yl)phenyl)pyridin-3-yl)-3,4-dihydroisoquinolin-1(2H)-one]

Further lines, the compound ahead of its results:

Structure (SMILES) | IC50 [1] | IC50 [2]
CN(C1CC1)S(=O)(=O)c1ccc(-c2cnc(N)c(-c3ccc4c(c3)CCCNC4=O)c2)cc1 [4-(6-amino-5-(1-oxo-2,3,4,5-tetrahydro-1H-benzo[c]azepin-7-yl)pyridin-3-yl)-N-cyclopropyl-N-methylbenzenesulfonamide] | < 0.01 µM | < 0.01 µM
Nc1ncc(-c2ccc(S(=O)(=O)NC3CC3)cc2)cc1-c1ccc2c(c1)CCCNC2=O [4-(6-amino-5-(1-oxo-2,3,4,5-tetrahydro-1H-benzo[c]azepin-7-yl)pyridin-3-yl)-N-cyclopropylbenzenesulfonamide] | < 0.01 µM | < 0.01 µM
CN(C1CC1)S(=O)(=O)c1ccc(-c2cnc(N)c(-c3ccc4c(c3)C3(CC3)CNC4=O)c2)cc1 [4-(6-amino-5-(1′-oxo-2′,3′-dihydro-1′H-spiro[cyclopropane-1,4′-isoquinolin]-6′-yl)pyridin-3-yl)-N-cyclopropyl-N-methylbenzenesulfonamide] | < 0.01 µM | < 0.01 µM
Nc1ncc(-c2ccc(S(=O)(=O)NC3CC3)cc2)cc1-c1ccc2c(c1)C1(CC1)CNC2=O [4-(6-amino-5-(1′-oxo-2′,3′-dihydro-1′H-spiro[cyclopropane-1,4′-isoquinolin]-6′-yl)pyridin-3-yl)-N-cyclopropylbenzenesulfonamide] | < 0.01 µM | < 0.01 µM
CN(C1CC1)S(=O)(=O)c1ccc(-c2cnc(N)c(-c3ccc4c(c3)CCN(CCC#N)C4=O)c2)cc1 [4-(6-amino-5-(2-(2-cyanoethyl)-1-oxo-1,2,3,4-tetrahydroisoquinolin-6-yl)pyridin-3-yl)-N-cyclopropyl-N-methylbenzenesulfonamide] | < 0.15 µM | < 0.05 µM
CN(C1CC1)S(=O)(=O)c1ccc(-c2cnc(N)c(-c3ccc4c(c3)CCCCC(=O)N4)c2)cc1 [4-(6-amino-5-(2-oxo-1,2,3,4,5,6-hexahydrobenzo[b]azocin-8-yl)pyridin-3-yl)-N-cyclopropyl-N-methylbenzenesulfonamide] | < 0.15 µM | < 0.05 µM
CCN(CC)S(=O)(=O)c1ccc(-c2cnc(N)c(-c3ccc4c(c3)CCCC(=O)N4)c2)cc1 [4-(6-amino-5-(2-oxo-2,3,4,5-tetrahydro-1H-benzo[b]azepin-7-yl)pyridin-3-yl)-N,N-diethylbenzenesulfonamide] | – | < 0.15 µM
CN(C1CC1)S(=O)(=O)c1ccc(-c2cnc(N)c(-c3ccc4c(c3)C(C)(C)NC4=O)c2)cc1 [4-(6-amino-5-(3,3-dimethyl-1-oxoisoindolin-5-yl)pyridin-3-yl)-N-cyclopropyl-N-methylbenzenesulfonamide] | < 0.01 µM | < 0.01 µM
CCN(CC)S(=O)(=O)c1ccc(-c2cnc(N)c(-c3ccc4c(O)n[nH]c4c3)c2)cc1 [4-(6-amino-5-(3-hydroxy-1H-indazol-6-yl)pyridin-3-yl)-N,N-diethylbenzenesulfonamide] | – | < 0.15 µM
CCN(CC)S(=O)(=O)c1ccc(-c2cnc(N)c(-c3ccc4c(=O)[nH]oc4c3)c2)cc1 [4-(6-amino-5-(3-oxo-2,3-dihydrobenzo[d]isoxazol-6-yl)pyridin-3-yl)-N,N-diethylbenzenesulfonamide] | – | < 0.15 µM
CN(C1CC1)S(=O)(=O)c1ccc(-c2cnc(N)c(-c3ccc4c(c3)C3(CC3)NC4=O)c2)cc1 [4-(6-amino-5-(3′-oxospiro[cyclopropane-1,1′-isoindolin]-6′-yl)pyridin-3-yl)-N-cyclopropyl-N-methylbenzenesulfonamide] | < 0.01 µM | < 0.01 µM
Nc1ncc(-c2ccc(S(=O)(=O)NC3CC3)cc2)cc1-c1ccc2c(c1)C1(CC1)NC2=O [4-(6-amino-5-(3′-oxospiro[cyclopropane-1,1′-isoindolin]-6′-yl)pyridin-3-yl)-N-cyclopropylbenzenesulfonamide] | < 0.01 µM | < 0.01 µM
CC1(C)CNC(=O)c2ccc(-c3cc(-c4ccc(S(=O)(=O)NC5CC5)cc4)cnc3N)cc21 [4-(6-amino-5-(4,4-dimethyl-1-oxo-1,2,3,4-tetrahydroisoquinolin-6-yl)pyridin-3-yl)-N-cyclopropylbenzenesulfonamide] | < 0.01 µM | < 0.01 µM
CCN(CC)S(=O)(=O)c1ccc(-c2cnc(N)c(-c3ccc4c(O)ncnc4c3)c2)cc1 [4-(6-amino-5-(4-hydroxyquinazolin-7-yl)pyridin-3-yl)-N,N-diethylbenzenesulfonamide] | < 0.05 µM | < 0.01 µM
CCNS(=O)(=O)c1ccc(-c2cnc(N)c(-c3ccc4c(O)ncnc4c3)c2)cc1 [4-(6-amino-5-(4-hydroxyquinazolin-7-yl)pyridin-3-yl)-N-ethylbenzenesulfonamide] | < 0.05 µM | < 0.01 µM
CN(C1CC1)S(=O)(=O)c1ccc(-c2cnc(N)c(-c3ccc4c(c3)NCCNC4=O)c2)cc1 [4-(6-amino-5-(5-oxo-2,3,4,5-tetrahydro-1H-benzo[e][1,4]diazepin-8-yl)pyridin-3-yl)-N-cyclopropyl-N-methylbenzenesulfonamide] | < 0.01 µM | < 0.01 µM
CN(C1CC1)S(=O)(=O)c1ccc(-c2cnc(N)c(-c3ccc4c(c3)OCCNC4=O)c2)cc1 [4-(6-amino-5-(5-oxo-2,3,4,5-tetrahydrobenzo[f][1,4]oxazepin-8-yl)pyridin-3-yl)-N-cyclopropyl-N-methylbenzenesulfonamide] | < 0.01 µM | < 0.01 µM
